US11147272B2, “Pyridone compounds and agricultural and horticultural fungicides comprising the same as active ingredients” (MITSUI CHEMICALS AGRO, INC., priority 2017, dated 2021)

Tests used:
[1] = test system: Blumeria graminis f. sp. hordei; test: Test Example D: Powdery mildew on barley; details: for Test D control value class: class of control value
[2] = test system: Phytophthora infestans; test: whole plant or invertebrate; type: in vivo; details: for Test F control value class: class of control value
[3] = test system: Colletotrichum orbiculare; test: Test Example H: Anthracnose on cucumber; details: for Test H control value class: Anthracnose on cucumber (Sagami Hanjiro), 2.5 ml/pot, assessed 6 to 10 days after inoculation; for Test H control value: 6 to 10 days after inoculation
[4] = test system: Plasmopara viticola; test: Test Example G: Downy mildew on vine; details: for Test G control value class: Downy mildew on vine (Neomuscat), 2.5 ml/pot, assessed 7 to 10 days after inoculation; for Test G control value: 7 to 10 days after inoculation
[5] = test system: Botrytis cinerea; test: Test Example B: Gray mold on tomato; details: for Test B control value class: class of control value
[6] = test system: Alternaia brassicicola; test: Test Example C: Alternaria sooty spot on cabbage; type: in vivo
From the text: Seeds of a test plant (cabbage variety: Shikidori) were planted and cultivated until the cotyledons extended.
<Control Value> Control value=100{1−(n/3)}

[7] = test system: Puccinia recondita; test: Test Example E: Brown rust on wheat; type: in vivo
[8] = test system: Magnaporthe grisea; test: whole plant or invertebrate; type: in vivo; details: for Test A control value class: class of control value
[9] = Alternaria sooty spot on cabbage, class of control value
[10] = Brown rust on wheat, class of control value
[11] = Powdery mildew on barley, control value class
[12] = Late blight on tomato, control value class
[13] = Anthracnose on cucumber, 250 ppm spray
[14] = Downy mildew on vine, 250 ppm spray
[15] = Gray mold on tomato, control value class
[16] = Alternaria sooty spot on cabbage, control value class
[17] = Brown rust on wheat, control value class
[18] = Blast on rice, control value class
[19] = 250 ppm drug solution sprayed on test plant
[20] = 250 ppm drug solution sprayed (2.5 ml/pot), cucumber Sagami Hanjiro
[21] = 250 ppm drug solution sprayed (2.5 ml/pot), grape Neomuscat

SMILES	Test D control value class ([1]; Powdery mildew on barley)	Test F control value class ([2]; Late blight on tomato)	Test H control value class ([3]; 250 ppm spray)	Test G control value class ([4]; 250 ppm spray)	Test B control value class ([5]; Gray mold on tomato)	Test C control value class [6, 9]	Test E control value class [7, 10]	Test A control value class ([8]; Blast on rice)	Test D control value [1, 11]	Test F control value [2, 12]	Test H control value [3, 13]	Test G control value [4, 14]	Test B control value [5, 15]	Test C control value [6, 16]	Test E control value [7, 17]	Test A control value [8, 18]	further results
CCn1c(-c2c(F)cc(F)cc2F)c(C(C)(C)OC)cc(Cl)c1=O [compound 109]	H (more than 50% control value)	L (50% or less control value)	H (more than 50% control value)	L (50% or less control value)	H (more than 50% control value)	H (more than 50% control value)	H (more than 50% control value)	H (more than 50% control value)									
CCCCCc1cc(Cl)c(=O)n(CC)c1-c1ccc(F)cc1Cl [compound 209]									H (more than 50% control value)	L (50% or less control value)	H (more than 50% control value)	H (more than 50% control value)	H (more than 50% control value)	H (more than 50% control value)	H (more than 50% control value)	H (more than 50% control value)	
CCCC1=C(c2c(F)cc(F)cc2F)N(CC)C(=O)CC1 [compound 371]									L (50% or less control value)	L (50% or less control value)	L (50% or less control value)	L (50% or less control value)	H (more than 50% control value)	L (50% or less control value)	L (50% or less control value)	L (50% or less control value)	
CCn1c(-c2c(F)cccc2F)c(C)ccc1=O [Compound No. 1, 6-(2,6-difluorophenyl)-1-ethyl-5-methylpyridin-2(1H)-one]																	pest or weed control at 250 µg/mL ([1]; Blumeria graminis, in Hordeum vulgare, topical, read-out: Test D control value class): < 50%; pest or weed control at 250 µg/mL ([2]; Phytophthora infestans, in Solanum lycopersicum, topical, read-out: Test F control value class): < 50%; pest or weed control at 250 ppm ([3]; Colletotrichum orbiculare, in Cucumis sativus, topical, read-out: Test H control value class): < 50%; pest or weed control at 250 ppm ([4]; Plasmopara viticola, topical, read-out: Test G control value class): < 50%; pest or weed control at 250 µg/mL ([5]; Botrytis cinerea, in Solanum lycopersicum, topical, read-out: Test B control value class): < 50%; pest or weed control at 250 µg/mL ([6]; Brassica oleracea, topical, Alternaria sooty spot on cabbage, class of control value, read-out: Test C control value class): < 50%; pest or weed control at 250 µg/mL ([7]; Puccinia recondita, topical, Brown rust on wheat, class of control value, read-out: Test E control value class): < 50%; pest or weed control at 250 µg/mL ([8]; Pyricularia oryzae, in Oryza sativa, read-out: Test A control value class): > 50%
CCn1c(-c2ccccc2Cl)c(CC(C)C)ccc1=O [compound 262]									H (more than 50% control value)	L (50% or less control value)	H (more than 50% control value)	L (50% or less control value)	H (more than 50% control value)	H (more than 50% control value)	H (more than 50% control value)	L (50% or less control value)	
CCc1ccc(=O)n(C)c1-c1ccc(F)cc1Cl [compound 314]									H (more than 50% control value)	L (50% or less control value)	L (50% or less control value)	L (50% or less control value)	L (50% or less control value)	L (50% or less control value)	H (more than 50% control value)	L (50% or less control value)	
Cc1ccc(=O)n(C)c1-c1c(F)cccc1F [compound 3]	L (50% or less control value)	L (50% or less control value)	L (50% or less control value)	L (50% or less control value)	L (50% or less control value)	H (more than 50% control value)	L (50% or less control value)	L (50% or less control value)									
CCn1c(-c2ccc(F)cc2F)c(CC(C)C)ccc1=O [compound 117]	H (more than 50% control value)	L (50% or less control value)	H (more than 50% control value)	L (50% or less control value)	H (more than 50% control value)	H (more than 50% control value)	H (more than 50% control value)	H (more than 50% control value)									
CCCc1cc(Cl)c(=O)n(CCC)c1-c1c(F)cc(F)cc1F [compound 439]																	Test D control value [1, 19]: L (50% or less control value); Test F control value [2, 19]: L (50% or less control value); Test H control value [3, 20]: H (more than 50% control value); Test G control value [4, 21]: L (50% or less control value); Test B control value [5, 19]: L (50% or less control value); Test C control value [6, 19]: L (50% or less control value); Test E control value [7, 19]: L (50% or less control value); Test A control value [8, 19]: H (more than 50% control value)
CCn1c(-c2c(F)cccc2F)c(C(C)(F)C(C)C)cc(Cl)c1=O (racemic) [compound 184]	H (more than 50% control value)	L (50% or less control value)	H (more than 50% control value)	H (more than 50% control value)	H (more than 50% control value)	H (more than 50% control value)	H (more than 50% control value)	H (more than 50% control value)									
CCCCCCc1cc(Cl)c(=O)n(CC)c1-c1ccc(F)cc1Cl [compound 292]									H (more than 50% control value)	L (50% or less control value)	L (50% or less control value)	L (50% or less control value)	H (more than 50% control value)	H (more than 50% control value)	L (50% or less control value)	L (50% or less control value)	
CCn1c(-c2ccc(F)cc2)c(CC(C)C)cc(Cl)c1=O [compound 149]	H (more than 50% control value)	L (50% or less control value)	H (more than 50% control value)	H (more than 50% control value)	H (more than 50% control value)	H (more than 50% control value)	H (more than 50% control value)	H (more than 50% control value)									
CCOC(C)(C)c1cc(Cl)c(=O)n(CC)c1-c1c(F)cc(OC)cc1F [compound 162]	H (more than 50% control value)	L (50% or less control value)	H (more than 50% control value)	H (more than 50% control value)	H (more than 50% control value)	H (more than 50% control value)	H (more than 50% control value)	H (more than 50% control value)									
CCCc1cc(I)c(=O)n(CC(F)F)c1-c1c(F)cc(F)cc1F [compound 473]																	Test D control value [1, 19]: H (more than 50% control value); Test F control value [2, 19]: L (50% or less control value); Test H control value [3, 20]: L (50% or less control value); Test G control value [4, 21]: L (50% or less control value); Test B control value [5, 19]: H (more than 50% control value); Test C control value [6, 19]: H (more than 50% control value); Test E control value [7, 19]: H (more than 50% control value); Test A control value [8, 19]: H (more than 50% control value)
CCn1c(-c2c(F)cc(OC)cc2F)c(CN(C)OC)cc(Cl)c1=O [compound 94]	H (more than 50% control value)	H (more than 50% control value)	H (more than 50% control value)	H (more than 50% control value)	H (more than 50% control value)	H (more than 50% control value)	H (more than 50% control value)	H (more than 50% control value)									
CCn1c(-c2c(F)cc(OC)cc2F)c(C(C)(O)CC(C)C)cc(Cl)c1=O (centres unmarked) [compound 153]	H (more than 50% control value)	L (50% or less control value)	H (more than 50% control value)	H (more than 50% control value)	H (more than 50% control value)	H (more than 50% control value)	H (more than 50% control value)	L (50% or less control value)									
